The text below walks through data of paper PMC5464343 (Pharmacology Research & Perspectives, 2017).

In one series the test system is CYP2D6*2. As to conditions: transiently expressed CYP2D6*2, bufuralol 1′‐hydroxylation; ref Sakuyama et al. (2008); cited from earlier work.
For series [1], the system named is wild‐type CYP450s 1A2, 2C8, 2C9, 2C19, 2D6, 3A4, and 3A5. Nature of the series: Metabolite identification, wild‐type CYP450‐overexpressing HEK293 microsomes. The class given is in vitro ADME, human. As to conditions: compound presented as substrate to overexpressing CYP450 microsomes.
Another series deals with UGT2B17. To be noted: HLM panel; ref Sun et al. 2010; cited from earlier work.
Another series has as its system pooled HLM. Further details: method as in Kamdem et al. 2011. As to conditions: pooled HLM treated with ketoconazole; ref Kamdem et al. 2011; cited from earlier work.
The target in a further series is T1, CYP2C8 (Homo sapiens, UniProt P10632).
T1 sequence (P10632 1-490): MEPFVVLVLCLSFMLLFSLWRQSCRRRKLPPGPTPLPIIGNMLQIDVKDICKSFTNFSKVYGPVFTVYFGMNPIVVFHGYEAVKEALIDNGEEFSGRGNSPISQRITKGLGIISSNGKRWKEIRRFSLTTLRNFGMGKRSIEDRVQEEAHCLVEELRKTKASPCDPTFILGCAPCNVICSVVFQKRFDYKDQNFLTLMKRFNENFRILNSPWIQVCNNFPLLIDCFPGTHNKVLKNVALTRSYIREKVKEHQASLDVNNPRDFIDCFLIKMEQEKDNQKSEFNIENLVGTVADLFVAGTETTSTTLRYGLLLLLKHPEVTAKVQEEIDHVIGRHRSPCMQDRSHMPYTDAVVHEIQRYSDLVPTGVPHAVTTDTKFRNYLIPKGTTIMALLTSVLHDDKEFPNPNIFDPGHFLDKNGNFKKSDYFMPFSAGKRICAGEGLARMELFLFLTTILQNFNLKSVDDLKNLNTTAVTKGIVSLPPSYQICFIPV
To be noted: wild‐type CYP2C8*1A; V max/K M.

The target in another series is CYP2C9 (Homo sapiens, UniProt P11712). To be noted: wild‐type CYP2C9*1A; V max/K M.
Chain of CYP2C9 (P11712 whole entry): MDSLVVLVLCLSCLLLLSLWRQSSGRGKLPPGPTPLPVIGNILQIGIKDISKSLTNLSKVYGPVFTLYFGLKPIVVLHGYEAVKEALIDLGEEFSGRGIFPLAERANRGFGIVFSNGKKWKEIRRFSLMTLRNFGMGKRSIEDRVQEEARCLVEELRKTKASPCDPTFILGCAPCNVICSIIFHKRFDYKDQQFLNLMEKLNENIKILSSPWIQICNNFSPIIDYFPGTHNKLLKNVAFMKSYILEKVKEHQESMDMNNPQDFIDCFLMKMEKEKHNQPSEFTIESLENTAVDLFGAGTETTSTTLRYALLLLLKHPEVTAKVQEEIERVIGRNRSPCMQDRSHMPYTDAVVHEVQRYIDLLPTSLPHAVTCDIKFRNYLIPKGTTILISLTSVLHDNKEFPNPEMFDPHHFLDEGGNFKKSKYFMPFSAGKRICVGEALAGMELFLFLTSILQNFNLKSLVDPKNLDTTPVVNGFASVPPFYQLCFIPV
In series [2] the test system is CYP2D6^Pro34Ser, Ser486Thr.
Another series relates to CYP2C8*2. Further details: method as in Kaspera et al. 2010. To be noted: E. coli‐expressed CYP2C8*2 vs wild‐type; M‐1 and M‐23 formation; ref Kaspera et al. 2010; cited from earlier work.
Another series concerns CYP2C8*4. Set-up: method as in Kaspera et al. (2010). To be noted: recombinant CYP2C8*4; ref Kaspera et al. (2010); cited from earlier work.
Substrate in series [3]: C=C1C[C@@H]2[C@H](CC[C@]3(C)C(=O)CC[C@@H]23)[C@@]2(C)C=CC(=O)C=C12
Nature of the series: cells, lysate or membranes named. To be noted: other: CYP2C8*3; normalized to relative CYP450 content; pH 7.4; 37.0 °C.

In the case of `CCc1cccc2cc(C(O)CNC(C)(C)C)oc12` (stereo not drawn) [bufuralol], the “decrease in substrate affinity” value in the series with CYP2D6*2 was “two‐fold”.
Regarding `C=C1C[C@H]2[C@@H]3CC[C@H](O)[C@@]3(C)CC[C@@H]2[C@@]2(C)C=CC(=O)C=C12` [17β‐DHE, 17β‐hydroxy‐6‐methyleneandrosta‐1,4‐dien‐3‐one], the secondary metabolite formation result in series [1] is recorded as “not observed”. The “glucuronidation (V max/K M) lower in UGT2B17‐null homozygotes (*2/*2) compared to wild‐type homozygotes (*1/*1)” value in the series with UGT2B17 was 36 fold.
For the molecule `CC(=O)N1CCN(c2ccc(OCC3COC(Cn4ccnc4)(c4ccc(Cl)cc4Cl)O3)cc2)CC1` (stereo not drawn) [ketoconazole], in the series with pooled HLM, the “effect on 6‐HME formation” value is on record as “strongly inhibits”.
Turning to `C=C1C[C@@H]2[C@H](CC[C@]3(C)C(=O)CC[C@@H]23)[C@@]2(C)C=CC(=O)C=C12` [exemestane, 6‐methyleneandrosta‐1,4‐diene‐3,17‐dione], the CLINT was determined as 0.194 µL/min/mg on CYP2C8; 0.027 µL/min/mg on CYP2C9; 0.038 µL/min/mg in [2] (CYP2D6*10, V max/K M). In series [2] (CYP2D6*10, normalized to relative CYP450 content), this molecule showed a V max of 39 ± 6 pmol/min/mg. In series [2] (CYP2D6*10 vs CYP2D6*1), the “increase of the K M value for EXE substrate” value is reported as 82%. In [2] (human, microsomes, pH 7.4), the “decrease in clearance compared to CYP2D6*1” value is on record as 56%.
As to `C[C@]12C=CC(=O)C=C1C(CO)=C[C@@H]1[C@@H]2CC[C@]2(C)C(=O)CC[C@@H]12` [6‐HME, 6‐hydroxymethylandrosta‐1,4,6‐triene‐3,17‐dione], the secondary metabolite formation result in [1] is listed as “not observed”.
`COCc1c(C(C)C)nc(C(C)C)c(/C=C/[C@@H](O)C[C@@H](O)CC(=O)O)c1-c1ccc(F)cc1` [cerivastatin]: the “increase in the sum of cerivastatin metabolite clearance” value in the series on CYP2C8*2 is reported as 53%. Further, in the series with CYP2C8*4, the “increase of combined clearance of the M‐1 and M‐23 cerivastatin metabolites compared to wild‐type” value is recorded as “approximately 2.5 fold”.
For the molecule `C=C1C[C@H]2[C@@H]3CC[C@@H](O)[C@@]3(C)CC[C@@H]2[C@@]2(C)C=CC(=O)C=C12` [17α‐DHE, 17α‐hydroxy‐6‐methyleneandrosta‐1,4‐dien‐3‐one], the secondary metabolite formation result in series [1] is listed as “not observed”.

B1: CYP2C8^Arg139Lys, Lys399Arg (Homo sapiens; K399R/R139K) (protein)
chain: MEPFVVLVLCLSFMLLFSLWRQSCRRRKLPPGPTPLPIIGNMLQIDVKDICKSFTNFSKVYGPVFTVYFGMNPIVVFHGYEAVKEALIDNGEEFSGRGNSPISQRITKGLGIISSNGKRWKEIRRFSLTTLRNFGMGKKSIEDRVQEEAHCLVEELRKTKASPCDPTFILGCAPCNVICSVVFQKRFDYKDQNFLTLMKRFNENFRILNSPWIQVCNNFPLLIDCFPGTHNKVLKNVALTRSYIREKVKEHQASLDVNNPRDFIDCFLIKMEQEKDNQKSEFNIENLVGTVADLFVAGTETTSTTLRYGLLLLLKHPEVTAKVQEEIDHVIGRHRSPCMQDRSHMPYTDAVVHEIQRYSDLVPTGVPHAVTTDTKFRNYLIPKGTTIMALLTSVLHDDREFPNPNIFDPGHFLDKNGNFKKSDYFMPFSAGKRICAGEGLARMELFLFLTTILQNFNLKSVDDLKNLNTTAVTKGIVSLPPSYQICFIPV
In general, Vmax refers to the rate approached at saturating substrate. Consider B1, for which the Vmax in [3] came out at 0.000144 µmol/min/mg.
